PubChem BioAssay AID449725 (University of Pittsburgh Molecular Library Screening Center, 2010)
Calls of active or inactive are those of the source. How the calls were made is not given here.

Test system: IMR-90 human lung fibroblast viability counter screen
Test: IMR-90 fibroblast viability reduction, dose response, cytotoxicity control, cell-based, IC50 (AID 449725);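 further: 48 hour compound exposure before the viability read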

Structure (SMILES) | IC50
COc1ccc(C(=O)Nc2cc(Cl)ccc2C(N)=O)cc1 | > 25 µM (inactive)
O=C(Nc1cc(Cl)ccc1C(=O)O)c1ccc(OC(F)(F)F)cc1 | > 25 µM (inactive)
O=C(Nc1cc(Cl)ccc1C(=O)O)c1ccc(I)cc1 | > 25 µM (inactive)
O=c1c(Br)csn1-c1ccc(Br)cc1 | > 25 µM (inactive)
COc1ccc(C(=O)Nc2cc(C(F)(F)F)ccc2C(=O)O)cc1 | > 25 µM (inactive)
O=C1CCN(C(=O)Nc2cc(Cl)ccc2C(=O)O)CC1 | > 25 µM (inactive)
O=c1c2cc(F)ccc2sn1-c1ccc(Cl)cc1 | > 25 µM (inactive)
CC(C)(C)c1ccc(C(=O)Nc2cc(Cl)c(Br)cc2C(=O)O)cc1 | > 25 µM (inactive)
O=C(O)c1ccc(Cl)cc1NC(=O)N1CCOCC1 | > 25 µM (inactive)
O=C(Nc1ccccc1)n1sc2ccccc2c1=O | 1.66 µM
CC(C)(C)c1ccc(C(=O)Nc2cc(Cl)ccc2-c2nn[nH]n2)cc1 | > 25 µM (inactive)
O=C(Cn1sc2ccccc2c1=O)NC1CCCCC1 | 12.8 µM
CC(C)Cc1ccc(C(=O)Nc2cc(Cl)ccc2C(=O)O)cc1 | > 25 µM (inactive)
Cc1ccc(C(=O)Nc2cc(Cl)ccc2C(=O)O)cc1 | > 25 µM (inactive)
O=C(Cn1sc2ccccc2c1=O)Nc1ccccc1F | > 25 µM (inactive)
O=c1c2ccccc2sn1-c1cccc(Cl)c1 | > 25 µM (inactive)
O=C(Cn1sc2ccccc2c1=O)Nc1ccccc1 | 6.93 µM
CN(C)c1cccc(NC(=O)Cn2sc3ccccc3c2=O)c1 | > 25 µM (inactive)
COc1ccc2c(=O)n(-c3ccccc3)sc2c1 | > 25 µM (inactive)
C=C(C)c1ccc(C(=O)Nc2cc(Cl)ccc2C(=O)O)cc1 | > 25 µM (inactive)
O=C(Nc1cc(Cl)ccc1C(=O)O)c1cocn1 | > 25 µM (inactive)
O=c1c2ccc(F)cc2sn1Cc1ccccc1 | > 25 µM (inactive)

Structure (SMILES) | IC50
O=C(Cn1sc2ccccc2c1=O)Nc1ccc(F)cc1 | 6.87 µM
COc1ccccc1C(=O)Nc1cc(Cl)ccc1C(=O)O | > 25 µM (inactive)
O=c1c2cc(Br)ccc2sn1-c1ccccc1 | > 25 µM (inactive)
O=C(Cn1sc2ccccc2c1=O)Nc1cccc(Br)c1 | > 25 µM (inactive)
O=C(c1ccccc1)n1sc2ccccc2c1=O | 17 µM
COc1ccc(C(=O)Nc2cccc(Cl)c2)cc1 | > 25 µM (inactive)
O=c1c2cc(N3CCOCC3)ccc2sn1-c1ccccc1 | 20.9 µM
COc1ccc2sn(-c3ccccc3)c(=O)c2c1 | > 25 µM (inactive)
COc1ccc(C(=O)Nc2ccccc2C(=O)O)cc1Cl | > 25 µM (inactive)
O=C(Cn1sc2ccccc2c1=O)Nc1ccc(Br)cc1 | > 25 µM (inactive)
CN(Cc1ccccc1)C(=O)Cn1sc2ccccc2c1=O | 15.2 µM
COc1ccc(C(=O)Nc2cc(OC)ccc2C(=O)O)cc1 | > 25 µM (inactive)
CN(C)c1ccc(C(=O)Nc2cc(Cl)ccc2C(=O)O)cc1 | > 25 µM (inactive)
O=C(Cn1sc2ccccc2c1=O)Nc1ccccc1Br | > 25 µM (inactive)
CN(C)S(=O)(=O)c1cccc(-n2sc3ccccc3c2=O)c1 | 12.8 µM
O=C(Cn1sc2ccccc2c1=O)Nc1cccc(F)c1 | > 25 µM (inactive)
CCc1ccc(C(=O)Nc2cc(Cl)ccc2C(=O)O)cc1 | > 25 µM (inactive)
O=c1c2ccccc2sn1-c1cccc(F)c1 | 7.9 µM
COc1ccc(C(=O)NC(C(=O)O)c2ccccc2)cc1 (stereo not given) | > 25 µM (inactive)
COc1ccc(C(=O)Nc2cc(-c3ccccc3)ccc2C(=O)O)cc1 | > 25 µM (inactive)
COc1ccc(C(=O)Nc2ccc(Cl)cc2C(=O)O)cc1 | > 25 µM (inactive)
O=C1c2cc(Br)ccc2S(=O)N1c1ccccc1 (stereo not given) | > 25 µM (inactive)

Structure (SMILES) | IC50
COc1ccc(C(=O)Nc2cc(Cl)ccc2-c2nn[nH]n2)cc1 | > 25 µM (inactive)
O=C(Nc1cc(Cl)ccc1C(=O)O)c1ccccc1 | > 25 µM (inactive)
COc1ccc(NC(=O)Cn2sc3ccccc3c2=O)cc1 | 6.49 µM
O=C(Cn1sc2ccccc2c1=O)Nc1cccc(I)c1 | > 25 µM (inactive)
O=C(Cn1sc2ccccc2c1=O)Nc1ccccc1Cl | > 25 µM (inactive)
O=C(O)c1ccc(Cl)cc1NC(=O)c1coc2ccccc12 | > 25 µM (inactive)
O=c1c2ccc(F)cc2sn1-c1ccccc1 | 7.17 µM
COc1ccc(C(=O)Nc2cc(Cl)ccc2O)cc1 | > 25 µM (inactive)
CC(C)c1cccc(C(=O)Nc2cc(Cl)ccc2C(=O)O)c1 | > 25 µM (inactive)
COc1ccc(C(=O)Nc2cc(Cl)ccc2S(N)(=O)=O)cc1 | > 25 µM (inactive)
COc1ccc(NC(=O)Nc2ccccc2C(=O)O)cc1 | > 25 µM (inactive)
COc1ccc(C(=O)Nc2cc(Cl)c(C)cc2C(=O)O)cc1 | > 25 µM (inactive)
Cn1c2ccccc2c(=O)n1-c1ccccc1 | > 25 µM (inactive)
Cc1ccc(NC(=O)Cn2sc3ccccc3c2=O)cc1 | 11 µM
COc1ccc(C(=O)Nc2cc(Cl)ccc2C#N)cc1 | > 25 µM (inactive)
CC(=O)Nc1cc(Cl)ccc1C(=O)O | > 25 µM (inactive)
O=C(Cn1sc2ccccc2c1=O)Nc1ccc(C(F)(F)F)cc1 | 13.9 µM
COC(=O)c1cc(Cl)ccc1NC(=O)c1ccc(OC)cc1 | > 25 µM (inactive)
COc1ccc(C(=O)NC(CC(=O)O)c2cccc(Cl)c2)cc1 (stereo not given) | > 25 µM (inactive)
COc1ccc(C(=O)Nc2cc(Cl)c(Br)cc2C(=O)O)cc1 | > 25 µM (inactive)
CCc1ccc(C(=O)Nc2cc(Cl)ccc2C(=O)OC)cc1 | > 25 µM (inactive)
COc1ccccc1-n1sc2ccccc2c1=O | 6.29 µM

Structure (SMILES) | IC50
O=c1c2cc(C(F)(F)F)ccc2sn1-c1ccccc1 | 12 µM
O=c1c2cc(F)ccc2sn1-c1ccccc1 | > 25 µM (inactive)
O=C(Nc1cc(Cl)ccc1C(=O)O)c1ccc(Cl)cc1 | > 25 µM (inactive)
O=C(Nc1cc(Cl)ccc1C(=O)O)c1ccc2ccccc2c1 | > 25 µM (inactive)
O=c1c2ccc([N+](=O)[O-])cc2sn1-c1ccccc1 | 20.7 µM
COc1ccc(S(=O)(=O)Nc2cc(Cl)ccc2C(=O)O)cc1 | > 25 µM (inactive)
COc1ccc(C(=O)Nc2cc(Cl)ccc2C(=O)O)cc1OC | > 25 µM (inactive)
O=C(Cn1sc2ccccc2c1=O)Nc1ccccc1I | > 25 µM (inactive)
O=C(Cn1sc2ccccc2c1=O)N1CCOCC1 | > 25 µM (inactive)
COc1ccc(C(=O)Nc2ccccc2-c2nn[nH]n2)cc1 | > 25 µM (inactive)
COC(=O)c1ccc(Cl)cc1NS(=O)(=O)c1ccc(OC)cc1 | 13.8 µM
O=c1c2cc(F)c(F)cc2sn1-c1ccccc1 | > 25 µM (inactive)
O=C(Nc1cc(Cl)ccc1C(=O)O)c1ccc2c(c1)OCO2 | > 25 µM (inactive)
O=c1cc(-c2ccccc2)sn1-c1ccccc1 | 13.4 µM
Cn1sc(=O)c2ccccc21 | 18 µM
O=c1c2c(Br)cccc2sn1-c1ccccc1 | > 25 µM (inactive)
COc1cccc(-n2sc3ccccc3c2=O)c1 | 6.34 µM
O=C(Nc1cc(Cl)ccc1C(=O)O)c1ccsc1 | > 25 µM (inactive)
COc1cc(C(=O)Nc2cc(Cl)ccc2C(=O)O)cc(OC)c1OC | > 25 µM (inactive)
